From patent US4002742A, “1-N-alkyl-4,6-di-(aminoglycosyl)-1,3-diaminocyclitols, methods for their manufacture, methods for their use as antibacterial agents, and compositions useful therefor” (priority 1974, dated 1977)
Values after ≈ are worked out from the molar mass of the structure shown.

Key:
Format in all cases: cell-based
[1] = system: organisms resistant to the parent compound; experiment: activity against organisms resistant to the 1-N-unsubstituted parent compounds; details: organisms resistant to the 1-N-unsubstituted precursors
From the text: (§1) Particularly useful compounds of our invention are those wherein X is a lower alkyl having up to 8 carbon atoms, particularly those having up to 4 carbon atoms, e.g. compounds of formulae I, II, III, IV, and V wherein X is methyl, ethyl, n-propyl or n-butyl.

[2] = system: gram positive bacteria and gram negative bacteria; experiment: antibacterial activity (standard dilution tests); details: versus parent antibiotic
From the text: as §1

bacteria = experiment: antibacterial activity and spectrum compared with the gentamicins
Escherichia coli = experiment: in vitro minimal inhibitory concentration, standard tube dilution method in Mueller-Hinton broth
From the text: In Table 1, set forth below is shown the in vitro minimal inhibitory concentration (MIC) of gentamicin C2a against representative gram-positive gram-negative bacteria. The results are derived using the standard tube dilution method in Mueller-Hinton broth.
In Table 2, set forth below is shown the in vitro minimal inhibitory concentration (MIC) of gentamicin C2b against representative gram-positive and gram-negative bacteria. The results are derived using the standard tube dilution method in Mueller-Hinton broth.

CCN[C@@H]1C[C@H](N)[C@@H](O[C@H]2OC(C(C)N)=CC[C@H]2N)[C@H](O)[C@H]1O[C@H]1OC[C@](C)(O)[C@H](NC)[C@H]1O (stereo partly shown) [1-N-ethylverdamicin]
activity against resistant organisms [1]: exhibit activity against gram negative organisms which are resistant to their 1-N-unsubstituted precursors

CCCN[C@@H]1C[C@H](N)[C@@H](O[C@H]2OC(C(C)N)=CC[C@H]2N)[C@H](O)[C@H]1O[C@H]1OC[C@](C)(O)[C@H](NC)[C@H]1O (stereo partly shown) [1-N-(n-propyl) verdamicin, 1-N-(n-propyl)verdamicin]
activity against resistant organisms [1]: exhibit activity against gram negative organisms which are resistant to their 1-N-unsubstituted precursors

CN[C@@H]1[C@@H](O)[C@@H](O[C@@H]2[C@@H](O)[C@H](O[C@H]3OC(CN)=CC[C@H]3N)[C@@H](N)C[C@H]2NCCCCN)OC[C@]1(C)O [1-N-(δ-aminobutyl) sisomicin, 1-N-(δ-aminobutyl)sisomicin]
activity against resistant organisms [1]: exhibit activity against gram negative organisms which are resistant to their 1-N-unsubstituted precursors

CCN[C@@H]1C[C@H](N)[C@@H](O[C@H]2OC(CN)=CC[C@H]2N)[C@H](O)[C@H]1O[C@H]1OC[C@](C)(O)[C@H](NC)[C@H]1O [1-N-ethylsisomicin]
antibacterial activity compared to the parent antibiotics [2]: enhanced antibacterial activity
activity against resistant organisms [1]: exhibit activity against gram negative organisms which are resistant to their 1-N-unsubstituted precursors

CN[C@@H]1[C@@H](O)[C@@H](O[C@@H]2[C@@H](O)[C@H](O[C@H]3OC(C(C)N)=CC[C@H]3N)[C@@H](N)C[C@H]2NCCCCN)OC[C@]1(C)O (stereo partly shown) [1-N-(δ-aminobutyl) verdamicin, 1-N-(δ-aminobutyl)veradamicin]
activity against resistant organisms [1]: exhibit activity against gram negative organisms which are resistant to their 1-N-unsubstituted precursors

CCCN[C@@H]1C[C@H](N)[C@@H](O[C@H]2OC(CN)=CC[C@H]2N)[C@H](O)[C@H]1O[C@H]1OC[C@](C)(O)[C@H](NC)[C@H]1O [1-N-(n-propyl) sisomicin, 1-N-(n-propyl)sisomicin]
activity against resistant organisms [1]: exhibit activity against gram negative organisms which are resistant to their 1-N-unsubstituted precursors

CN[C@@H]1[C@@H](O)[C@@H](O[C@@H]2[C@@H](O)[C@H](O[C@H]3O[C@H]([C@H](C)N)CC[C@H]3N)[C@@H](N)C[C@H]2N)OC[C@]1(C)O [gentamicin C2a]
activity relative to the gentamicin C complex (bacteria; as the free base, of the activity of the gentamicin C complex): about 74%
antibacterial spectrum in vitro (bacteria; compared with gentamicin C1, C1a and C2): substantially the same antibacterial spectrum in vitro as do gentamicin C1, C1a, and C2
MIC (Escherichia coli): 17.5 µg/mL (≈ 37.8 µM)
